# Data as given in paper PMC11562788, “Insights into the Hierarchical Assembly of a Chemically Diverse Peptide Hydrogel Derived from Human Semenogelin I” (ACS Nano, 2024).
# “Also recorded” adds a separate entry of the source. Residues, ends and D or L forms follow the SMILES beside them.
# Columns and labels:
# Type in all cases: physicochemical
# [1] = Solubility in water
# [2] = Hydrogelation and gel appearance by visual inspection
# Experimental: All FTIR measurements were collected on samples where a trifluoroacetate (TFA^–) to chloride ion exchange was performed to eliminate signals from the TFA^– carbonyl moiety in the amide I spectral region (Figure S1). FTIR spectra were collected for P0–P5 in D2O at six pD values (3.0, 5.0, 7.0, 8.0, 9.0, and 10.0) (Figures S2–S7). FTIR analysis for P6–P8 was performed at a pD of 8.0 (Figures S8–S10). The bulk of FTIR studies were performed at pD 8.0, as the optimum pH range for hydrogelation is 7–9 for both SgI38–48[28] and P0.
# (§1) All samples were prepared in nonstick Eppendorf tubes (Axygen, Inc.). Prior to the final sample preparation (for all FTIR samples and when otherwise stated), the TFA counteranions present in the peptide sample after HPLC purification were exchanged for chloride using the following protocol: lyophilized peptide was dissolved in deionized D2O (1.0 mL). HCl was added at a molar ratio of 13.7:1 HCl:peptide. For the Phe^CN mutants, the sample was divided into two groups and lyophilized. One sample was then redissolved in H2O (to avoid obscuring the O–D stretches in the nitrile region) and the other in D2O (to avoid overlapping of the O-H bending vibrations in the amide I region) to a final concentration of 2.0 mM, unless otherwise specified. All other peptide samples were redissolved in D2O. The exchange of TFA^– to chloride may be verified by a lack of signal at 1672 cm^–1, seen in the IR spectrum for the deuterium-exchanged TFA salt of P3, where the carbonyl signal from TFA is well separated from the amide I carbonyl high frequency stretch at 1684 cm^–1 (Figure S1). On the day of the peptide sample preparation, D2O was placed in an Eppendorf tube, was then used as background when collecting data points (0 h, 48 h, 1 week, etc.), and was assumed to absorb the same amount of H2O over time as the peptide sample prepared on the same day. The concentration of the peptide solutions was verified with the UV–vis absorbance peak at 280 nm using a molar absorptivity of 2560 M^–1 cm^–1 for all sequences (P0–P7). The pH/pD of the samples was then corrected to 8.0 using small volumes of NaOH and HCl (or NaOD and DCl). After attaining the desired pH/pD, samples were incubated at ambient temperature (ca. 22 °C) and followed over 7 days (or as specified) to allow for hydrogelation.
# [3] = SAXS/WAXS of fibrils, elliptical cylinder model fit; settings: for Fibril axis ratio / Fibril cross-sectional area / Fibril minor radius (minor semiaxis): SAXS, elliptical cylinder model fit, 2.0 mM, day 7 at 21 °C
# Experimental: Small- and wide-angle X-ray scattering (SAXS/WAXS) measurements were performed on a SAXSLabs Ganesha pinhole instrument (JJ X-ray System Aps) with an X-ray microsource (Xenocs) and a two-dimensional 300k Pilatus detector (Dectris Ltd., Switzerland). The wavelength, λ, used for all scattering experiments was 1.54 Å, and samples were measured at three sample-to-detector distances. All samples (200 μL) were loaded into a 1.5 mm diameter quartz capillary (Hilgenberg GmbH, Malsfeld, Germany), and the time-averaged scattering intensities were analyzed using a python code. The scattering intensity was corrected to an absolute scale by calibration against water. Supramolecular dimensions were extracted from SAXS data by using the SasView software and fitting the scattering curves to an elliptical-cylinder model (www.sasview.org).
# [4] = Cryo-TEM of fibril formation and morphology
# Experimental: Images were obtained at the National Center for High Resolution Electron Microscopy within Lund University on a JEOL JEM-2200 transmission electron microscopy instrument using a TVIPS F416 camera with an accelerator voltage of 200 kV. […] Grids were glow-discharged prior to sample preparation. Image processing was performed on the open-source software ImageJ (https://imagej.nih.gov) with the FIJI processing package.
# [5] = FTIR amide I: β-sheet self-assembly; settings: D2O, pD 8.0, 2.0 mM (P7, P8 and F40FCN 1.0 mM), ambient temperature
# Experimental: as §1
# FT IR was performed with a Bruker Vertex 70 spectrometer with a photovoltaic mercury cadmium telluride (MTC) detector. Before the spectral collection, the MCT detector was cooled with liquid nitrogen. A background spectrum (see hydrogel sample preparation above) was collected (6 μL of H2O or D2O), and the collection chamber was purged for 15 min before 6 μL of sample was loaded in between two CaF2 windows and separated by a 50-μm Teflon spacer in a 25-mm diameter demountable liquid cell (Harrick Scientific). After purging again, the IR spectrum was collected with 512 scans, with a resolution of 2 cm^–1, from 900 cm^–1 to 4000 cm^–1 at time t = 0 h, 24 h, 48 h, and 1 week (and sometimes longer) after sample constitution, processed using OPUS spectroscopy software, and plotted with Origin or KaleidaGraph.
# [6] = Stability of P0 gel in solution by MALDI-TOF mass spectrometry; settings: P0 in H2O pH 8.0, chloride salt 1.0 mM and trifluoroacetate salt 0.5 mM, ambient temperature, 2 weeks, MALDI-TOF/TOF MS
# Experimental: The identity and purity of all peptides were verified by electrospray or matrix-assisted laser desorption/ionization time-of-flight (MALDI-TOF) mass spectrometry (Bryn Mawr College, PA, at the Chemical Center, Lund University, Lund, Sweden, or at the Laboratory for Biological Mass Spectrometry at Texas A&M University, College Station, TX). Mass spectra were typically acquired using an Autoflex Speed MALDI TOF/TOF mass spectrometer (Bruker Daltonics) in positive reflector mode. A 1 μL peptide sample was mixed with 0.5 μL matrix solution, consisting of 5 mg/ml α-cyano-4-hydroxy cinnamic acid, 80% acetonitrile, and 0.1% TFA, and added to a MALDI stainless steel plate. All spectra were externally calibrated using Peptide Calibration Standard II (Bruker Daltonics) containing 9 internal standard peptides. […]
# All samples were prepared in nonstick Eppendorf tubes (Axygen, Inc.). […] The concentration of the peptide solutions was verified with the UV–vis absorbance peak at 280 nm using a molar absorptivity of 2560 M^–1 cm^–1 for all sequences (P0–P7). […]
# Figure S16. P0 gel stability was evaluated by MALDI-TOF analysis. […] (A) A sample of P0 in H2O at pH 8.0, chloride salt (1.0 mM) and (B) trifluoroacetate salt (0.5 mM) were prepared for stability and analyzed by MALDI-TOF mass spectrometry. […]
# degradation was observed over 2 weeks. […] The calculated mass for P0 [M+H]+ m/z = 1585.72. […]
Structure (SMILES),Solubility in water (in words) ([1]; P7 and P8 not tested above 1.0 mM at pH 8),"solubility ([1]; pH 8.0, read-out: Solubility limit in water)","Hydrogel formation ([2]; visual inspection, peptide in water/D2O, pH/pD 8.0, 2.0 mM (P7 1.0 mM), ambient temperature ca. 22 °C, up to 7 days)","Fibril formation by SAXS scattering ([3]; 2.0 mM P0–P6, 1.0 mM P7, 7 days at 21 °C, pH 8.0)","Presence of fibrils (cryo-TEM) ([4]; pH 8.0 water, 2.0 mM (P7 1.0 mM), incubation at 21 °C)",β-Sheet secondary structure (self-assembly) by FTIR amide I [5],Degradation in solution [6],Optimum pH range for hydrogelation ([2]; P0),"Hydrogel formation on pH adjustment ([2]; P0 in H2O at pH 8.0, chloride salt 1.0 mM and trifluoroacetate salt 0.5 mM)","Gel appearance over time (clear or cloudy / precipitate) ([2]; visual inspection, 2.0 mM in D2O, pD 8.0, ambient temperature, 24 h to 6 days)",Fibril axis ratio ([3]; pH 8.0),Fibril cross-sectional area ([3]; pH 8.0),Fibril minor radius (minor semiaxis) ([3]; pH 8.0),"Colloidal stability / phase separation of the hydrogel ([2]; visual inspection after hydrogel preparation, pH/pD 8.0, 2.0 mM, ambient temperature)",Repeat distance of sharp SAXS peak at q = 0.305 Å^–1 ([3]; after 1 day of incubation at 21 °C),"Diameter of fibril bundle (cryo-TEM) ([4]; after 7 days of incubation at 21 °C, bundle of approximately 5 fibrils)"
CC(=O)N[C@@H](Cc1ccc(O)cc1)C(=O)N[C@H](C(=O)N[C@@H](Cc1ccc(O)cc1)C(=O)N[C@@H](Cc1c[nH]cn1)C(=O)N[C@H](C(=O)N[C@@H](CC(=O)O)C(N)=O)C(C)C)[C@@H](C)O [P7] (Ac-YTYHVD-NH2),low solubility,1000 µM,inability of P7 to form a hydrogel,no significant scattering is observed,contains no fibrils,no sign of a β-sheet secondary structure; also recorded: unstructured,,,,,,,,,,
CC[C@H](C)[C@H](NC(=O)[C@H](CO)NC(=O)[C@H](Cc1ccccc1)NC(=O)[C@H](CO)NC(=O)CNC(=O)[C@H](CCCCN)NC(C)=O)C(=O)N[C@@H](CCC(N)=O)C(=O)N[C@@H](Cc1ccc(O)cc1)C(=O)N[C@H](C(=O)N[C@@H](Cc1ccc(O)cc1)C(=O)N[C@@H](Cc1c[nH]cn1)C(=O)N[C@H](C(=O)N[C@@H](CC(=O)O)C(N)=O)C(C)C)[C@@H](C)O [P0] (Ac-KGSFSIQYTYHVD-NH2),,,,,,,"No appreciable, if any; also recorded: No degradation",7–9,soft gel immediately formed,usually yields a clear gel upon preparation but occasionally turns cloudy,2.8,14.9 nm^2,1.3 nm,,,
CC[C@H](C)[C@H](NC(C)=O)C(=O)N[C@@H](CCC(N)=O)C(=O)N[C@@H](Cc1ccc(O)cc1)C(=O)N[C@H](C(=O)N[C@@H](Cc1ccc(O)cc1)C(=O)N[C@@H](Cc1c[nH]cn1)C(=O)N[C@H](C(=O)N[C@@H](CC(=O)O)C(N)=O)C(C)C)[C@@H](C)O [P5] (Ac-IQYTYHVD-NH2),,,,,,,,,,,1.9,65.0 nm^2,3.3 nm,colloidally unstable and undergoes phase separation,2.1 nm,~10 nm
